Measurements from patent publication EP3233044B1, “ANHYDROUS COSMETIC COMPOSITION FOR TOPICAL APPLICATION IN INTIMATE AREAS” (The Procter & Gamble Company, priority 2014, dated 2016).

Tests used:
[1] = Thiol Vapor Pressure Suppression (TVPS) index, headspace butanethiol by zNose fast GC; assay type: physicochemical; settings: 5 µl compound vs 100 µl of 1% v/v butanethiol in ethanol, 37 °C for 4 hours; percentage reduction in butanethiol peak area
Excerpt: Thiol Vapor Pressure Suppression (TVPS) index is a measure of the reduction in butanethiol concentration in the headspace by a compound, as measured using a fast GC instrument, the zNose 7100 (Electronic Sensor Technologies, Newbury Park, CA). Before any measurements the instrument is calibrated according to manufacturer's instructions under the same experimental settings. The instrument has a DB-5 column (EST Part No.SYS7100C5, Electronic Sensor Technologies, Newbury Park, CA) 1 m in length, 0.25 µm phase thickness, and 0.25mm in diameter. […]
TVPS of a compound is measured in the following way: 100 µl ± 1 µl of a 1% v/v butanethiol (99%, purity) solution in ethanol (200 proof) is added into a 1 ml vial (8 x 40 mm). […]
The amount of butanethiol in the headspace is measured from the area of the peak on the chromatograph for butanethiol (ABtSH,Rx). To calculate the percentage of butanethiol reduction in the headspace, a control with the butanethiol solution without the volatile material is run in the same manner and the area is measured as well (ABtSH,C). TVPS is then measured as the percentage reduction in butanethiol area calculated using the following formula: TVPS = (ABtSH,C −ABtSH,Rx)/(ABtSH,C) × 100 [formula]

[2] = Solubility of Vitamin B5 derivatives in anhydrous stick formulations; assay type: physicochemical
Excerpt: Additional considerations regarding exemplary Vitamin B5 derivatives may apply. For example, in order to deliver Vitamin B5 (or a derivative thereof) from an anhydrous, hydrophobic, glycol free and antiperspirant free cosmetic stick, a corresponding matrix soluble form or derivative of Vitamin B5 must be used to achieve the desired benefits of hair softening, shave bump reduction and wound healing from shave cut damage. For example, if an incompatible or insoluble form of Vitamin B5 is used, such as panthenol, this will not form a homogenous one phase solution when the ingredients are blended and heated together from the melt.
As such, the Vitamin B5 derivative utilized should be soluble in the anhydrous, hydrophobic, glycol free and antiperspirant free matrix.

## CC(C)c1cccc(C(C)CC=O)c1 (stereo not drawn) [Florhydral]
[1]
  TVPS: 50.5

## CC(=O)OCCCNC(=O)[C@H](OC(C)=O)C(C)(C)COC(C)=O [Panthenyl Triacetate]
[2]
  Solublility in hydrophobic Anhydrous, glycol free, antiperspirant free Stick formulations: Soluble

## Panthenyl Ethyl Ether
[2]
  Solublility in hydrophobic Anhydrous, glycol free, antiperspirant free Stick formulations: Soluble
